Source: ChEMBL document CHEMBL1138936, “Potent hFPRL1 (ALXR) agonists as potential anti-inflammatory agents” (Bioorg Med Chem Lett, 2006)
The source made the active and inactive calls. The rule behind the calls is not given here.

Assays:
[1] = biological target: T1, N-formyl peptide receptor 2 (Homo sapiens, UniProt P25090); test: Activity at human FPRL1-mediated calcium mobilization in CHO cells; format: functional, cell-based
T1 sequence (P25090 whole entry): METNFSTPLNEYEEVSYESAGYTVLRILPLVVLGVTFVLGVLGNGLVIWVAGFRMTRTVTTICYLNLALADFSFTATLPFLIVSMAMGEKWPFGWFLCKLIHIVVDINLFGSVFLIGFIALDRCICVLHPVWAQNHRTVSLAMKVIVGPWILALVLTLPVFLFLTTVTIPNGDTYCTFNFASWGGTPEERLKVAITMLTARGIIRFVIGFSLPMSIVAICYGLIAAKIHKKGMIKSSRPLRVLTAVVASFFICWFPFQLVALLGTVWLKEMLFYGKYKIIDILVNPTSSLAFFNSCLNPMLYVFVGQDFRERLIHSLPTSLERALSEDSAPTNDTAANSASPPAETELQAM

PMNL [2] = test: Inhibition of IL8-induced PMN migration; format: functional, cell-based; details: Homo sapiens
[3] = Protein binding in mouse plasma; format: ADME, organism-based; details: read-out: PPB (converted)
PMNL [4] = test: Inhibition of fMLP-induced PMN migration; format: functional, cell-based; details: Homo sapiens
Mus musculus [5] = test: Reduction of edema in mouse ear inflammation model at 16.6 mg/kg, po; format: functional; set-up: scale not given: the % may be the effect or the level left
[6] = Half life in rat at 0.5 mg/kg, iv; format: ADME, organism-based; set-up: dose 0.5 mg/kg, route intravenous; details: in vivo
Mus musculus [7] = test: Reduction of edema in mouse ear inflammation model at 5 mg/kg, po; format: functional; set-up: scale not given: the % may be the effect or the level left
Mus musculus [8] = test: Unbound ligand concentration in mouse plasma at 50 mg/kg; format: ADME, organism-based; set-up: dose 50 mg/kg; details: in vivo
Mus musculus [9] = test: Reduction of edema in mouse ear inflammation model at 50 mg/kg, po; format: functional; set-up: scale not given: the % may be the effect or the level left
[10] = Clearance in rat at 0.5 mg/kg, iv; format: ADME, organism-based; set-up: dose 0.5 mg/kg, route intravenous; details: in vivo
Mus musculus [11] = test: Unbound ligand concentration in mouse plasma at 16.6 mg/kg; format: ADME, organism-based; set-up: dose 16.6 mg/kg; details: in vivo
[12] = Bioavailability in rat at 2 mg/kg, po; format: ADME, organism-based; details: in vivo
Mus musculus [13] = test: Unbound ligand concentration in mouse plasma at 5 mg/kg; format: ADME, organism-based; set-up: dose 5 mg/kg; details: in vivo
Mus musculus [14] = test: Reduction of edema in mouse ear inflammation model at 1 mg/kg, po; format: functional; set-up: scale not given: the % may be the effect or the level left
Mus musculus [15] = species on record: Mus musculus; test: Reduction of swelling in mouse ear at 30 ug; format: functional; set-up: scale not given: the % may be the effect or the level left
Mus musculus [16] = species on record: Mus musculus; test: Reduction of swelling in mouse ear at 25 ug; format: functional
Mus musculus [17] = species on record: Mus musculus; test: Reduction of swelling in mouse ear at 0.25 ug; format: functional; set-up: scale not given: the % may be the effect or the level left
Mus musculus [18] = species on record: Mus musculus; test: Reduction of swelling in mouse ear at 2.5 ug; format: functional; set-up: scale not given: the % may be the effect or the level left

EC50 [1] [nM] | Compound | further results
310 | CCc1c(NC(=O)Nc2ccc(C)c(F)c2)c(=O)n(-c2ccccc2)n1C | 
> 10000 | Cc1cc(NC(=O)Nc2c(C)n(C)n(-c3ccccc3)c2=O)ccc1F | 
81 | Cc1ccc(NC(=O)Nc2c(C(C)C)n(C)n(-c3ccccc3)c2=O)cc1F | 
490 | Cc1c(NC(=O)Nc2ccc(Cl)cc2)c(=O)n(-c2ccccc2)n1C | 
 | CC(C)c1c(NC(=O)Nc2ccc(Cl)cc2)c(=O)n(-c2ccccc2)n1C | IC50 (PMNL [2]): 240 nM; fraction unbound [3]: 0.021; IC50 (PMNL [4]): 640 nM; Activity (Mus musculus [5]): 39%; half-life [6]: 2.78 h; Activity (Mus musculus [7]): 11%; unbound plasma concentration (Mus musculus [8]): 185 nM; Activity (Mus musculus [9]): 58%; clearance [10]: 2.1 mL/min/kg; unbound plasma concentration (Mus musculus [11]): 17 nM; bioavailability [12]: 91%; unbound plasma concentration (Mus musculus [13]): 14 nM
150 | CC(C)c1c(NC(=O)Nc2ccc(C(F)(F)F)cc2)c(=O)n(-c2cncnc2)n1C | 
140 | CCc1c(NC(=O)Nc2ccc(Cl)cc2)c(=O)n(-c2ccccc2)n1C | 
43 | CSc1ccc(NC(=O)Nc2c(C(C)C)n(C)n(-c3cncnc3)c2=O)cc1 | 
90 | Cc1c(NC(=O)Nc2ccc(Br)cc2)c(=O)n(-c2ccccc2)n1C | 
 | C[C@@H]1C[C@H]2[C@@H]3CCC4=CC(=O)C=C[C@]4(C)[C@@]3(F)[C@@H](O)C[C@]2(C)[C@@]1(O)C(=O)CO [DEXAMETHASONE] | Activity (Mus musculus [14]): 54%; Activity (Mus musculus [15]): 71%
1470 | CC(C)c1c(NC(=O)Nc2ccc(C(F)(F)F)cc2)c(=O)n(C2=NCCS2)n1C | 
 | CCCCC(Oc1ccccc1)[C@@H](O)/C=C/C=C\C=C\C=C\[C@@H](O)[C@@H](O)CCCC(=O)O (stereo not given in full) | Activity (Mus musculus [16]): Active
770 | CCc1ccc(NC(=O)Nc2c(C)n(C)n(-c3ccccc3)c2=O)cc1 | 
> 10000 | Cc1c(NC(=O)Nc2nccs2)c(=O)n(-c2ccccc2)n1C | 
30 | Cc1c(NC(=O)Nc2ccc(I)cc2)c(=O)n(-c2ccccc2)n1C | IC50 (PMNL [2]): 2000 nM; Activity (Mus musculus [17]): 31%; IC50 (PMNL [4]): 2000 nM; Activity (Mus musculus [16]): 52%; Activity (Mus musculus [18]): 35%
83 | Cc1ccc(NC(=O)Nc2c(C(C)(C)C)n(C)n(-c3ccccc3)c2=O)cc1F | 
100 | Cc1c(NC(=O)Nc2ccc(C(F)(F)F)cc2)c(=O)n(-c2ccccc2)n1C | 
> 10000 | CC(C)c1c(NC(=O)Nc2ccccc2Cl)c(=O)n(-c2ccccc2)n1C | 
980 | Cc1ccc(NC(=O)Nc2c(C)n(C)n(-c3ccccc3)c2=O)cc1F | 

EC50 [1] [nM] | Compound | further results
170 | CSc1ccc(NC(=O)Nc2c(C)n(C)n(-c3ccccc3)c2=O)cc1 | 
23 | Cn1c(C(C)(C)C)c(NC(=O)Nc2ccc(Cl)cc2)c(=O)n1-c1ccccc1 | 
> 10000 | Cc1c(NC(=O)Nc2cccc(Cl)c2)c(=O)n(-c2ccccc2)n1C | 
44 | CC(C)c1c(NC(=O)Nc2ccc(C(F)(F)F)cc2)c(=O)n(-c2cnc3ccccc3c2)n1C | 
5130 | CSc1ccc(NC(=O)Nc2c(C(C)C)n(C)n(C3=NCCS3)c2=O)cc1 | 
> 10000 | Cc1c(NC(=O)Nc2ccccc2)c(=O)n(-c2ccccc2)n1C | 
250 | CC(C)c1c(NC(=O)Nc2ccc(Cl)cc2)c(=O)n(-c2cncnc2)n1C | 
100 | CCn1c(C(C)C)c(NC(=O)Nc2ccc(C)c(F)c2)c(=O)n1-c1ccccc1 | 
80 | CC(C)c1c(NC(=O)Nc2ccc(Cl)cc2)c(=O)n(-c2cnc3ccccc3c2)n1C | 
540 | CC(C)c1c(NC(=O)Nc2ccc(Cl)cc2)c(=O)n(C2=NCCS2)n1C | 
1260 | Cc1ccc(NC(=O)Nc2c(C)n(C)n(-c3ccccc3)c2=O)cc1 | 
3700 | Cc1c(NC(=O)Nc2ccc(C#N)cc2)c(=O)n(-c2ccccc2)n1C | 
5880 | Cc1c(NC(=O)Nc2ccc3c(c2)OCO3)c(=O)n(-c2ccccc2)n1C | 
2730 | COc1ccc(NC(=O)Nc2c(C)n(C)n(-c3ccccc3)c2=O)cc1 | 
4850 | Cc1c(NC(=O)Nc2ccc(F)cc2)c(=O)n(-c2ccccc2)n1C | 
> 10000 | CC1C(N(C)C(=O)N(C)c2ccc(I)cc2)C(=O)N(c2ccccc2)N1C (stereo not given) | IC50 (PMNL [2]): > 10000 nM; Activity (Mus musculus [17]): 2%; IC50 (PMNL [4]): > 10000 nM; Activity (Mus musculus [16]): 8%; Activity (Mus musculus [18]): 8%
30 | CSc1ccc(NC(=O)Nc2c(C(C)C)n(C)n(-c3cnc4ccccc4c3)c2=O)cc1 | 
> 10000 | Cc1c(NC(=O)Nc2ccccc2Cl)c(=O)n(-c2ccccc2)n1C | 
12300 | Cc1c(NC(=O)Nc2ccc(C(C)C)cc2)c(=O)n(-c2ccccc2)n1C | 
